Like-named read-outs stand apart in the source and are kept apart here.
Legend:
Type in all cases: biochemical
thrombin = thrombin (Homo sapiens, UniProt P00734); test: Thrombin amidolytic assay (chromogenic substrate Chromozym TH)
Method: (§1) The compounds of the present invention are dissolved in buffer to give solutions containing concentrations such that assay concentrations range from about 0 to about 100 μM. In the assays for thrombin, prothrombinase and factor Xa, a synthetic chromogenic substrate is added to a solution containing test compound and the enzyme of interest and the residual catalytic activity of that enzyme is determined spectrophotometrically. The IC50 of a compound is determined from the substrate turnover. The IC50 is the concentration of test compound giving about 50% inhibition of the substrate turnover.
(§2) The factor Xa and thrombin assays were performed at room temperature, in 0.02 M Tris-HCl buffer, pH 7.5, containing 0.15 M NaCl. The rates of hydrolysis of the para-nitroanilide substrate S-2765 (Chromogenix) for factor Xa, and the substrate Chromozym TH (Boehringer Mannheim) for thrombin following preincubation of the enzyme with inhibitor for 5 minutes at room temperature, and were determined using the Softmax 96-well plate reader (Molecular Devices), monitored at 405 nm to measure the time dependent appearance of p-nitroaniline.

prothrombinase complex = prothrombinase complex (Homo sapiens, UniProt P00742); test: Prothrombinase inhibition assay in a plasma free system; conditions: table of Examples 6-18; unit inferred; read-out: IIASE (IC50)
Method: as §1
The prothrombinase inhibition assay was performed in a plasma free system with modifications to the method described by Sinha, U. et al., Thromb. Res., 75, 427-436 (1994). Specifically, the activity of the prothrombinase complex was determined by measuring the time course of thrombin generation using the p-nitroanilide substrate Chromozym TH. The assay consists of preincubation (5 minutes) of selected compounds to be tested as inhibitors with the complex formed from factor Xa (0.5 nM), factor Va (2 nM), phosphatidyl serine:phosphatidyl choline (25:75, 20 μM) in 20 mM Tris-HCl buffer, pH 7.5, containing 0.15 M NaCl, 5 mM CaCl2 and 0.1% bovine serum albumin. Aliquots from the complex-inhibitor mixture were added to prothrombin (1 nM) and Chromozym TH (0.1 mM). The rate of substrate cleavage was monitored at 405 nm for two minutes. Eight different concentrations of inhibitor were assayed in duplicate. A standard curve of thrombin generation by an equivalent amount of untreated complex was used for determination of percent inhibition.

factor Xa = factor Xa (Homo sapiens, UniProt P00742); test: Factor Xa amidolytic assay (chromogenic substrate S-2765)
Method: as §1, §2

[1] = Table 5, read-out: Inhibitory Activity (IC50) Thrombin
[2] = table of Examples 6-18, unit inferred, read-out: IIA (IC50)
[3] = Table 5, read-out: Inhibitory Activity (IC50) Factor Xa
[4] = table of Examples 6-18, unit inferred, read-out: XA (IC50)

Chain of prothrombinase complex (P00742 235-488 limits assumed): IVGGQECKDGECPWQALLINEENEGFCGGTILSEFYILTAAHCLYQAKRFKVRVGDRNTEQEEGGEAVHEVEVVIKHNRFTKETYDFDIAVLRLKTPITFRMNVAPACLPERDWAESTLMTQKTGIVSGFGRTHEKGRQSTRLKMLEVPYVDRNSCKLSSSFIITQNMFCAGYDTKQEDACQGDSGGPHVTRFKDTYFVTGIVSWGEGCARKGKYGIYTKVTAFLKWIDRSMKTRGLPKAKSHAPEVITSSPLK
Chain of prothrombinase complex (P00742 41-179 limits assumed): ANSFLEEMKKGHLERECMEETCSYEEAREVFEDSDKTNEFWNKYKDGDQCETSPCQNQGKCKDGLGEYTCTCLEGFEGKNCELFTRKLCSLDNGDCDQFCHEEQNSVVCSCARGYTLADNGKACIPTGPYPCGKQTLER
Chain of prothrombinase complex (P12259 29-737 partner limits assumed): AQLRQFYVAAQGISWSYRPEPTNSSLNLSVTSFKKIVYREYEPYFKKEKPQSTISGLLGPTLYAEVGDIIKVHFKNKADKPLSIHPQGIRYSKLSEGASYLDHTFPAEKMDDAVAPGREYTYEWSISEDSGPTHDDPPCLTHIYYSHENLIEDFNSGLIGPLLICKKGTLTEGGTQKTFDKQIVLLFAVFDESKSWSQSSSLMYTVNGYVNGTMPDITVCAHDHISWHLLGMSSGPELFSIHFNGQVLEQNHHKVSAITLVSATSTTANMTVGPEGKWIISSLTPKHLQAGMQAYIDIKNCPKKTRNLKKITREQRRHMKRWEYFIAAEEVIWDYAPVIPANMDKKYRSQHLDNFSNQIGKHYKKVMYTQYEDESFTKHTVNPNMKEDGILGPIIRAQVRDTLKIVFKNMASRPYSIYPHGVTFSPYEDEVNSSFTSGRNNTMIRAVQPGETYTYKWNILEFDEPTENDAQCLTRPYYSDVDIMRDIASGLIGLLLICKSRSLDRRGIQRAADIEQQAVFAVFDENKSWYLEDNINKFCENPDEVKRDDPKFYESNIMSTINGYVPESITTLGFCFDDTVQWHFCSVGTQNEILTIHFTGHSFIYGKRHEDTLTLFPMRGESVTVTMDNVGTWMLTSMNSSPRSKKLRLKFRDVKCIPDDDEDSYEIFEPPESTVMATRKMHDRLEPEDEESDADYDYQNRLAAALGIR
Chain of prothrombinase complex (P12259 1574-2224 partner limits assumed): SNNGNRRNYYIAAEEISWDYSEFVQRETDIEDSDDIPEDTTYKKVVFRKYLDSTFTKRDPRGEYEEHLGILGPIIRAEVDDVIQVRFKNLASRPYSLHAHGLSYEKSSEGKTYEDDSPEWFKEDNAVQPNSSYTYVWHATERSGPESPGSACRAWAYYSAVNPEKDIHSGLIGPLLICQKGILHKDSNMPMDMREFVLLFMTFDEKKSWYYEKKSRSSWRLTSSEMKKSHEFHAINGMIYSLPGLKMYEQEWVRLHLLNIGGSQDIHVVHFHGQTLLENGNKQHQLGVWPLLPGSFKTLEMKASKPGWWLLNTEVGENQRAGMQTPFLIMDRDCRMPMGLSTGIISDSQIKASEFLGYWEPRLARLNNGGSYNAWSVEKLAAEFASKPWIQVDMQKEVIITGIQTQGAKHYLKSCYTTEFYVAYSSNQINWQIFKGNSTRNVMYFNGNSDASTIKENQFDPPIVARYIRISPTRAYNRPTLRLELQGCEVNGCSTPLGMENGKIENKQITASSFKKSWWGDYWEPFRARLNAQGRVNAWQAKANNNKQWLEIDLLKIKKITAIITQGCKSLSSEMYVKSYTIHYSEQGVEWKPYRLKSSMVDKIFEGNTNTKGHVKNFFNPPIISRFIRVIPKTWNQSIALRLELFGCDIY
Chain of factor Xa (P00742 235-488 limits assumed): as the sequence (P00742 235-488 limits assumed) above
Chain of factor Xa (P00742 41-179 limits assumed): as the sequence (P00742 41-179 limits assumed) above

CCOC(=O)c1nc2cc(OC3CCN(C(C)=N)CC3)ccc2n1Cc1cc2ccc(C(=N)N)cc2n1CC [Example 18] gave an IC50 (thrombin; [1]) of 1300 nM, an IC50 (thrombin; [2]) of 1360 nM and an IC50 (prothrombinase complex) of 167 nM. For the same compound, the IC50 (factor Xa; [3]) was 18 nM and the IC50 (factor Xa; [4]) was 18 nM.
Work on CC(C)c1nc2cc(OC3CCN(C)CC3)ccc2n1Cc1cccc(-c2cccc(C(=N)N)c2)c1 [Example 8] yielded an IC50 (thrombin; [2]) of 29000 nM, an IC50 (prothrombinase complex) of 375 nM and an IC50 (factor Xa; [4]) of 32.2 nM.
CC(=N)N1CCC(Oc2ccc3nc(C(C)C)n(Cc4cccc(-c5cccc(C(=N)N)c5)c4)c3c2)CC1 [Example 9] was tested, and the IC50 (thrombin; [2]) was 9610 nM, the IC50 (prothrombinase complex) was 9040 nM and the IC50 (factor Xa; [4]) was 658 nM.
With CCn1c(Cn2c(C(C)C)nc3cc(OC4CCN(C(C)=N)CC4)ccc32)cc2ccc(C(=N)N)cc21 [Example 7] the IC50 (thrombin; [1]) was 805 nM, the IC50 (thrombin; [2]) was 805 nM and the IC50 (prothrombinase complex) was 9.67 nM. For the same compound, the IC50 (factor Xa; [3]) was 1.2 nM and the IC50 (factor Xa; [4]) was 1.2 nM.
CC(=N)N1CCC(Oc2ccc3c(c2)nc(C(C)C)n3Cc2cccc(-c3cccc(C(=N)N)c3)c2)CC1 [Example 10] gave an IC50 (thrombin; [1]) of 26300 nM, an IC50 (thrombin; [2]) of 26300 nM and an IC50 (prothrombinase complex) of 2.56 nM. It also gave an IC50 (factor Xa; [3]) of 5.73 nM and an IC50 (factor Xa; [4]) of 5.73 nM.
Work on CC(=N)N1CCC(Oc2ccc3nc(C(C)C)n(Cc4ccc5ccc(C(=N)N)cc5c4)c3c2)CC1 [Example 11] yielded an IC50 (prothrombinase complex) of 17 nM and an IC50 (factor Xa; [4]) of 10.4 nM.
CCn1c(Cn2c(C(C)C)nc3ccc(OC4CCN(C(C)=N)CC4)cc32)cc2ccc(C(=N)N)cc21 [Example 6] showed an IC50 (thrombin; [2]) of 16.4 nM, an IC50 (prothrombinase complex) of 139 nM and an IC50 (factor Xa; [4]) of 148 nM.
